Article PMC9218960 (ACS infectious diseases, 2020)
Numbering of substitutions follows the chain as printed.

How the values were obtained:
Assay in all cases: [3H]uridine uptake inhibition by purines in PfENT1-SNP-expressing yeast
Type in all cases: cell-based
PfENT1 F394L = target: T1, PfENT1 F394L (Plasmodium falciparum, UniProt Q8IDM6, F394L)
T1 sequence (Q8IDM6 1-422 F394L): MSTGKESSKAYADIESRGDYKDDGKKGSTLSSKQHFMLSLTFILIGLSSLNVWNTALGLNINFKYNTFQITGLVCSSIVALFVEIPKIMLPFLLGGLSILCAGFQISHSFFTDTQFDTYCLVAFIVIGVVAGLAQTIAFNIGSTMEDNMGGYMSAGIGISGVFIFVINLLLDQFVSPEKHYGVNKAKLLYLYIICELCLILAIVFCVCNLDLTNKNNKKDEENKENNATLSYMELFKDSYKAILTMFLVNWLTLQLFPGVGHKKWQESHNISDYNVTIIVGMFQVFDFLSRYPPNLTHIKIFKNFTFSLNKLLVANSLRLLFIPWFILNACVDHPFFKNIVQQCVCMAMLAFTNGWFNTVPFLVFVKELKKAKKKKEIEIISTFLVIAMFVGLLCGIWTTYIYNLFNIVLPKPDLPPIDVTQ

PfENT1 L197F = target: T2, PfENT1 L197F (Plasmodium falciparum, UniProt Q8IDM6, L197F)
T2 sequence (Q8IDM6 1-422 L197F): T1 sequence (Q8IDM6 1-422 F394L) with L197F, L394F

[1] = target: T3, PfENT1 F36S/V129I/L133F/P417L (Quad) (Plasmodium falciparum, UniProt Q8IDM6, F36S/L133F/P417L/V129I)
T3 sequence (Q8IDM6 1-422 F36S/V129I/L133F/P417L): T1 sequence (Q8IDM6 1-422 F394L) with F36S, V129I, L133F, L394F, P417L

PfENT1 F92I = target: T4, PfENT1 F92I (Plasmodium falciparum, UniProt Q8IDM6, F92I)
T4 sequence (Q8IDM6 1-422 F92I): T1 sequence (Q8IDM6 1-422 F394L) with F92I, L394F

PfENT1 A351S = target: T5, PfENT1 A351S (Plasmodium falciparum, UniProt Q8IDM6, A351S)
T5 sequence (Q8IDM6 1-422 A351S): T1 sequence (Q8IDM6 1-422 F394L) with A351S, L394F

PfENT1 S317T = target: T6, PfENT1 S317T (Plasmodium falciparum, UniProt Q8IDM6, S317T)
T6 sequence (Q8IDM6 1-422 S317T): T1 sequence (Q8IDM6 1-422 F394L) with S317T, L394F

| SMILES | IC50 (PfENT1 F394L) [µM] | IC50 (PfENT1 L197F) [µM] | IC50 [1] [µM] | IC50 (PfENT1 F92I) [µM] | IC50 (PfENT1 A351S) [µM] | IC50 (PfENT1 S317T) [µM] |
| --- | --- | --- | --- | --- | --- | --- |
| O=c1[nH]cnc2nc[nH]c12 [Hypoxanthine, hypoxanthine] | 837 ± 93 | 282 ± 8 | 108 ± 5 | 207 ± 34 | 576 ± 270 | 175 ± 31 |
| Nc1ncnc2nc[nH]c12 [Adenine, adenine] | 1500 ± 227 | 46 ± 5 | 362 ± 56 | 176 ± 35 | 1240 ± 142 | 205 ± 49 |
| OC[C@H]1O[C@@H](n2cnc3c(O)ncnc32)[C@H](O)[C@@H]1O [Inosine, inosine] | 94 ± 29 | 37 ± 12 | 12 ± 1 | 51 ± 14 | 26 ± 9 | 28 ± 2 |
